From patent US7977304B2, “FK 228 derivates as HDAC inhibitors” (University of Southampton Highfield, priority 2005, dated 2011)

Assays:
MCF7 breast cancer cells = assay: Activity Assay 6: CyQuant cell growth inhibition, MCF7; format: cell-based; details: Homo sapiens, 144 h, MCF7, 6 days
Description: (§1) We analysed the ability of compounds to inhibit the in vitro growth of human cancer cells. Cell proliferation assays were performed using the CyQuant™ assay system (Molecular Probes, Inc. USA) according to the manufacturer's instructions. MCF7 breast, A2780 ovarian and PC3 and LNCAP prostate cancer cells were plated in 96 well plates, at a density of 1000 cells for MCF7 cells or 5000 cells for M780/PC3/LNCAP cells, in 100 μl of cell culture medium per well. Compounds were added a minimum of 5 hours later, in serial dilutions in cell culture medium, in 100 μl volumes at 2× final concentration. Cell culture medium was removed after 4 (A2780, PC3 or LNCAP cells) or 6 days (MCF7 cells) by inversion of the plate onto blotting paper and cells were gently washed once with 200 μl PBS. Plates were frozen immediately for a minimum of one hour at −80° C. and then thawed. 200 μl of 1× CyQuant cell lysis buffer supplemented with dye, made according to the manufacturer's instruction, was added immediately to each well and incubated at room temperature for 3-5 minutes. Fluorescence was then measured for each well using a Cytofluor II Fluoresence Multiwell Plate Reader and CytoFluor II software with filters at 480 nm for excitation and 520 nm for emission maxima. Cell proliferation was determined for mean values of duplicate samples as percentages relative to untreated cell samples (=100%). Growth inhibition curves were used to derive IC50 values.

[1] = test system: normal human dermal fibroblasts (NHDF); assay: Activity Assay 1: CyQuant cell proliferation assay, NHDF; format: cell-based; details: 144 h, read-out: mean IC50 for growth inhibition (±SD), NHDF
Description: (§2) Method; Cell proliferation assays were performed using the CyQuant™ assay system (Molecular Probes, Inc. USA) according to the manufacturer's instructions. This system utilises a proprietary green fluorescent dye which undergoes strong fluorescent enhancement on binding cellular nucleic acids, to allow determination of cell number with a linear detection range between 50 to 250,000 cells. Estrogen receptor positive MCF7 breast cancer cells (ECAAC) and NHDF cells (Cambrex, UK) were plated in 96 well plates, at a density of 1000 cells in 100 μl of cell culture medium per well. Compounds were added a minimum of 5 hours later, in serial dilutions in cell culture medium, in 100 μl volumes at 2× final concentration. Six days later cell culture medium was removed by inversion of the plate onto blotting paper and cells were gently washed once with 200 μl PBS. […] Fluorescence was then measured for each well using a Cytofluor II Fluoresence Multiwell Plate Reader and CytoFluor II software with filters at 480 nm for excitation and 520 nm for emission maxima. Cell proliferation was determined for mean values of duplicate samples as percentages relative to untreated cell samples (=100%). […]
(§3) MCF7 and NHDF were incubated with the indicated concentrations of compounds. After 6 days cell growth relative to untreated cells (=100%) was determined using the CyQuant™ assay. […]

[2] = test system: inflammation in Balb/c mice; assay: Activity Assay 8: oxazolone-induced ear inflammation in mice; format: in vivo; details: 24 hours; for Change in ear weight: Mean ± SD, 8 animals per group
Description: We analysed the ability of compound 9A (the compound of formula (2) on page 7) to inhibit inflammation in mice. Balb/c mice were sensitised by application of 5% (w/v) oxazolone to abdominal shaved skin. After 7 days mice were challenged by topical application of 3% (w/v) oxalazone to the left ear and acetone to the right ear. After 30 minutes test compounds dissolved in acetone were applied to the ears (dorsal and ventral surface).

[3] = test system: A2780 ovarian cancer cells; assay: Activity Assay 6: CyQuant cell growth inhibition, A2780; format: cell-based; details: Homo sapiens, 96 h, A2780, 4 days
Description: as §1

[4] = test system: acetylated histone H4 in primary chronic lymphocytic leukaemia cells; assay: Histone H4 acetylation in primary chronic lymphocytic leukaemia cells; format: cell-based; details: data not shown
[5] = test system: histone acetylation in cardiac myocytes; assay: Activity Assay 4: histone acetylation by immunoblotting, cardiac myocytes; format: cell-based; details: 24 hours
Description: (§4) Method; Cardiac myocytes were prepared as described in Chembiochem. 2005 January; 6(1):162-70 and incubated with the indicated concentrations of compound 001 for 24 hours. MCF7 cells were incubated with the indicated concentrations of compound 001 for 24 hours. Expression of total histone H4 acetylation, or specific acetylation of Histone H4-K8 or Histone H3-K9 was analysed by Western blotting, as previously described (Brimmell et al. Br J Cancer. 1999 November; 81(6):1042-51) using antibodies from Upstate Biotech.
(§5) (A) MCF7 cells were incubated with compound 001 for 24 hours. Histone H4 acetylation was measured by immunoblotting. (B) Cardiac myocytes were incubated with indicated compound 001 for 24 hours. Histone H4 acetylation was measured by immunoblotting. (C) MCF7 cells were incubated with compound 001 for 24 hours. Histone H3-K9 and Histone H4-K8 acetylation was measured by immunoblotting

[6] = test system: MCF7 human breast cancer cells; assay: Activity Assay 1: CyQuant cell proliferation assay, MCF7; format: cell-based
Description: as §2, §3

[7] = test system: histone acetylation in MCF7 breast cancer cells; assay: Activity Assay 4: histone acetylation by immunoblotting, MCF7; format: cell-based; details: MCF7, 24 hours
Description: as §4, §5

Structure (SMILES): CC(C)[C@H]1NC(=O)[C@H]2CSSCC/C=C/[C@H](CC(=O)N[C@H](C)C(=O)N2)OC(=O)CNC1=O [Compound 9A, (E)-(1S,7R,10S,21R)-7-isopropyl-21-methyl-2-oxa-12,13-dithia-5,8,20,23-tetraaza-bicyclo[8.7.6]tricos-16-ene-3,6,9,19,22-pentaone]
- IC50 (MCF7 breast cancer cells): 36.6 nM
- IC50 [1]: 420 ± 42 nM
- % inhibition compared to vehicle ([2]; 0.1% topical in acetone): 33.3%
- Change in ear weight ([2]; 0.1% topical in acetone): 42.4 ± 4.3 mg
- % inhibition compared to vehicle ([2]; 1% topical in acetone): 63.0%
- Change in ear weight ([2]; 1% topical in acetone): 23.5 ± 3.2 mg
- IC50 [3]: 130 nM
- levels of acetylated histone H4, primary chronic lymphocytic leukaemia cells [4]: increased the levels of acetylated histone H4
- Histone H4 acetylation, cardiac myocytes [5]: induces the accumulation of acetylated histone H4
- IC50 ([6]; Homo sapiens, 144 h, MCF7, 6 days, CyQuant, mean ± SD of multiple experiments, read-out: mean IC50 for growth inhibition (±SD), MCF7): 121 ± 52 nM
- potency of cancer cell growth inhibition compared with SAHA ([6]; MCF7, p=0.003, Student's t-test): significantly more potent than SAHA
- Histone H3-K9 and Histone H4-K8 acetylation, MCF7 cells [7]: specific Histone H3-K9 and Histone H4-K8 acetylation
- Histone H4 acetylation, MCF7 cells [7]: induces the accumulation of acetylated histone H4
